The results in this text go back to article PMC6100386, “Preparation of Novel Homodimers Derived from Cytotoxic Isoquinolinequinones. A Twin Drug Approach” (Molecules : A Journal of Synthetic Chemistry and Natural …, 2018).

In data set [1] the test system is MEF primary mouse embryonic fibroblasts. The data set is described as follows: Cell growth inhibition assay (CyQuant direct cell proliferation), normal fibroblasts. It counts as cell-based. As to conditions: normal mouse embryo fibroblast cell line; 72 h drug exposure; average of six independent determinations; read-out: IC50 ± SEM, MEF. As to the method:
(§1) The prepared homodimers 11–15 were evaluated for their in vitro cytotoxic activity using a conventional fluorescence assay (Cyquant direct cell proliferation assays), against primary mouse embryo fibroblast cell line MEF and two cancer cells lines: […] human breast adenocarcinoma and B16-F10 murine metastatic melanoma cells, in 72 h drug exposure assays. Monoamination products 6–10 were included in these preliminary assays. […] Etoposide and taxol, used clinically as anticancer agents, were taken as positive controls.
(§2) The cell lines used in this work included MDA-MB-231 human breast adenocarcinoma cells, B16-F10 mouse melanoma cells and MEF primary mouse embryonic fibroblasts. Cells were grown in DMEM high glucose medium (Mediatech, Manassas, VA, USA) supplemented with 10% (MDA-MB-231, and B16-F10) or 15% (MEF) heat-inactivated fetal bovine serum (HyClone laboratories, South Logan, UT, USA), 100 IU/mL penicillin and 100 μg/mL streptomycin, kept at 37 °C in a 5% CO2 humidified atmosphere. For the experiments, a total of 5.000 cells/well were seeded on a flat-bottomed 96-well plate with 200 μL final volume. Six hours after seeding, the cells were incubated with the medium containing the compounds at concentrations ranging from 0 up to 100 μM dissolved in DMSO (0.1% final concentration) for 72 h. The concentrations used to calculate the IC50 values were 100.0, 30.0, 10.0, 3.0, 1.0, 0.3, 0.1, 0.01 and 0.0 μM. Untreated cells (medium containing 0.1% DMSO) were used as controls. At the end of the incubation, cell viability was measured using CyQuant® direct cell proliferation assay kits (Life Technologies, Carlsbad, CA, USA) in accordance with the manufacturer’s instructions. Briefly, 100 μL of culture medium containing the compounds under evaluation was removed from each well and replaced by 2X detection reagent. The cells were incubated for 1 h and fluorescence emission was measured at 535 nm with excitation at 480 nm in a microplate reader (Infinite 200 PRO, Tecan, Männedorf, Switzerland). At least four independent experiments were performed for each concentration. Each result was transformed to percentage of controls and the IC50 values were obtained graphically from the dose–response curves. The IC50 value was obtained by adjusting the dose–response curve to a sigmoidal curve (variable slope) generated using GraphPad Prisma 6.0 software (La Jolla, CA, USA).

In data set [2] the test system is MDA-MB-231 human breast adenocarcinoma cells. Put plainly: Cell growth inhibition assay (CyQuant direct cell proliferation), breast adenocarcinoma. It counts as cell-based. As to conditions: human breast adenocarcinoma cell line, 72 h drug exposure, average of six independent determinations, read-out: IC50 ± SEM, MDA-MB 231. As to the method:
as §1, §2

Data set [3] relates to B16-F10 mouse melanoma cells. The data set is described as follows: Cell growth inhibition assay (CyQuant direct cell proliferation), melanoma. It counts as cell-based. As to conditions: murine metastatic melanoma cell line, 72 h drug exposure, average of six independent determinations, read-out: IC50 ± SEM, B16-F10. Here is the method:
as §1, §2

The test system of data set [4] is MDA-MB-231 and B16-F10 tumor cells (versus MEF fibroblasts). The data set is described as follows: Cell growth inhibition assay, mean over the two tumor cell lines and selectivity versus fibroblasts. As to conditions: for SI (mean selectivity index): IC50 values for fibroblast cells / IC50 values for tumor cells (mean IC50); for IC50: mean of the IC50 values of the two tumor cell lines MDA-MB 231 and B16-F10, 72 h. The class given is cell-based. Here is the method: as §1, §2

Read-outs that look alike come from different tables or passages of the source. Bounds are passed on as bounds.

Turning to “4-Acetyl-6-((4-(4-aminobenzyl)phenyl)amino)-3-methylisoquinoline-5,8-dione [Compound 10]”, the IC50 in data set [1] turned out to be 5.14 ± 0.69 µM; in data set [2], 2.75 ± 0.42 µM; in data set [3], 2.17 ± 0.37 µM; in data set [4], 2.46 µM. Further, in data set [4], the “SI (mean selectivity index)” value is on record as 2.09.

For the molecule `COC(=O)c1c(C)nc(C)c2c1C(=O)C=C(Nc1ccc(Cc3ccc(N)cc3)cc1)C2=O` [Compound 6], the melting point is 149 to 150 °C. The IC50 in data set [1] amounted to 8.87 ± 0.88 µM. Also, the IC50 in data set [2] (MDA-MB-231) was found to be 2.46 ± 0.39 µM. In addition, the IC50 in data set [3] (Mus musculus, B16-F10) is 6.16 ± 0.88 µM. In data set [4] (Fibroblast), this molecule yielded an IC50 of 4.31 µM. The “SI (mean selectivity index)” value in data set [4] is recorded as 2.06.

As for `CC(=O)c1c(C)nc(C)c2c1C(=O)C=C(Nc1ccc(Cc3ccc(N)cc3)cc1)C2=O` [Compound 7], the IC50 was 15.4 ± 1.97 µM in data set [1], 19.5 ± 1.46 µM in data set [2], 7.14 ± 0.95 µM in data set [3] and 13.3 µM in data set [4]. Also, the “SI (mean selectivity index)” value in data set [4] came to 1.15.

Molecule `COC(=O)c1c(C)ncc2c1C(=O)C=C(Nc1ccc(Cc3ccc(N)cc3)cc1)C2=O` [Compound 8] showed a melting point of 83 to 84 °C. Further, in data set [1], the IC50 turned out to be 5.54 ± 0.82 µM. Moreover, the IC50 in data set [2] (MDA-MB-231) was 1.45 ± 0.31 µM. The half-maximal inhibitory concentration (IC50) in data set [3] (Mus musculus, B16-F10) was determined as 3.31 ± 0.47 µM. This molecule also had an IC50 in data set [4] (Fibroblast) of 2.38 µM. For the same molecule, in data set [4], the “SI (mean selectivity index)” value worked out at 2.33.

For `CC(=O)c1c(C)ncc2c1C(=O)C=C(Nc1ccc(Cc3ccc(N)cc3)cc1)C2=O` [Compound 9], the IC50 in data set [1] came out at 2.79 ± 0.44 µM; in data set [2], 1.59 ± 0.37 µM; in data set [3], 0.76 ± 0.21 µM; in data set [4], 1.18 µM. Also, the “SI (mean selectivity index)” value in data set [4] was 2.36.

As for `COC(=O)c1c(C)nc(C)c2c1C(=O)C=C(Nc1ccc(Cc3ccc(NC4=CC(=O)c5c(C(=O)OC)c(C)nc(C)c5C4=O)cc3)cc1)C2=O` [Compound 11], the melting point lay in the range of 199 to 200 °C. Also, the IC50 in data set [1] was above 100 µM. Also, the IC50 in data set [2] (MDA-MB-231) was 66.9 ± 6.13 µM. The IC50 in data set [3] (Mus musculus, B16-F10) is above 100 µM. For the same molecule, the “SI (mean selectivity index)” value in data set [4] came to 0.30.

Take `CC(=O)c1c(C)nc(C)c2c1C(=O)C=C(Nc1ccc(Cc3ccc(NC4=CC(=O)c5c(C(C)=O)c(C)nc(C)c5C4=O)cc3)cc1)C2=O` [Compound 12, 7,7′-(4,4′-Methylenebis(4,1-phenylene)bis(azanediyl))bis(4-acetyl-1,3-dimethylisoquinoline-5,8-dione)]: the IC50 in data set [1] was found to be 71.6 ± 6.39 µM; in data set [2] it was 55.6 ± 5.95 µM; in data set [3], 48.6 ± 4.42 µM; in data set [4], 52.1 µM. Further, in data set [4], the “SI (mean selectivity index)” value amounted to 1.37.

For the molecule `COC(=O)c1c(C)ncc2c1C(=O)C=C(Nc1ccc(Cc3ccc(NC4=CC(=O)c5c(cnc(C)c5C(=O)OC)C4=O)cc3)cc1)C2=O` [Compound 13, Dimethyl-7,7′-(4,4′-methylenebis(4,1-phenylene)bis(azanediyl))bis(3-methyl-5,8-dioxo-5,8-dihydroisoquinoline-4-carboxylate)], the IC50 came out at 79.8 ± 9.27 µM in data set [1]; 24.8 ± 4.78 µM in data set [2] (MDA-MB-231); 66.3 ± 5.61 µM in data set [3] (Mus musculus, B16-F10); 45.6 µM in data set [4] (Fibroblast). Moreover, the “SI (mean selectivity index)” value in data set [4] was 1.75.

In the case of `CC(=O)c1c(C)ncc2c1C(=O)C=C(Nc1ccc(Cc3ccc(NC4=CC(=O)c5c(cnc(C)c5C(C)=O)C4=O)cc3)cc1)C2=O` [Compound 14, 7,7′-(4,4′-Methylenebis(4,1-phenylene)bis(azanediyl))bis(4-acetyl-3-methylisoquinoline-5,8-dione)], the IC50 amounted to 32.8 ± 3.38 µM in data set [1], 7.98 ± 1.43 µM in data set [2], 5.83 ± 0.73 µM in data set [3] and 6.91 µM in data set [4]. In data set [4], the “SI (mean selectivity index)” value is on record as 4.74.

Molecule `COC(=O)c1c(C)ncc2c1C(=O)C=C(Nc1ccc(Cc3ccc(NC4=CC(=O)c5cnc(C)c(C(=O)OC)c5C4=O)cc3)cc1)C2=O` [Compound 15, Methyl-7-(4-(4-(4-(methoxycarbonyl)-3-methyl-5,8-dioxo-5,8-dihydroisoquinolin-6-ylamino)benzyl)phenylamino)-3-methyl-5,8-dioxo-5,8-dihydroisoquinoline-4-carboxylate] gave a melting point of 191 to 192 °C. Also, the IC50 in data set [1] is 2.58 ± 0.33 µM. In data set [2] (MDA-MB-231), the IC50 turned out to be 0.29 ± 0.05 µM. Moreover, the IC50 in data set [3] (Mus musculus, B16-F10) was determined as 0.45 ± 0.08 µM. The molecule further yielded an IC50 in data set [4] (Fibroblast) of 0.37 µM. In addition, the “SI (mean selectivity index)” value in data set [4] is 6.97.

In the case of `COc1cc([C@@H]2c3cc4c(cc3[C@@H](O[C@@H]3O[C@@H]5CO[C@@H](C)O[C@H]5[C@H](O)[C@H]3O)[C@H]3COC(=O)[C@H]23)OCO4)cc(OC)c1O` [Etoposide, reference compound], the IC50 was 1.18 ± 0.4 µM in data set [1]; 5.34 ± 0.12 µM in data set [2] (MDA-MB-231); 2 ± 0.44 µM in data set [3] (Mus musculus, B16-F10); 3.67 µM in data set [4] (Fibroblast). In addition, the “SI (mean selectivity index)” value in data set [4] is recorded as 0.32.

Take `CC(=O)O[C@H]1C(=O)[C@@]2(C)[C@H]([C@H](OC(=O)c3ccccc3)[C@]3(O)C[C@H](OC(=O)[C@H](O)[C@@H](NC(=O)c4ccccc4)c4ccccc4)C(C)=C1C3(C)C)[C@]1(OC(C)=O)CO[C@@H]1C[C@@H]2O` [Taxol, reference compound]: the IC50 was 0.32 ± 0.05 µM in data set [1]; 0.32 ± 0.07 µM in data set [2] (MDA-MB-231); 0.38 ± 0.06 µM in data set [3] (Mus musculus, B16-F10); 0.35 µM in data set [4] (Fibroblast). Besides, in data set [4], the “SI (mean selectivity index)” value came to 0.91.
